{"source": "patent US10004222B2", "about": "“Small molecule ice recrystallization inhibitors and methods of use thereof” (THE UNIVERSITY OF OTTAWA, priority 2012, dated 2018)"}
{"tested_on": "HepG2 cells", "assay": "human liver cell viability, MTT assay", "assay_type": "cell-based", "settings": "at the concentration that yielded the highest functionality; overnight at 37° C.", "method": "In the assay, HepG2 cells (human hepatocellular carcinoma cells) were harvested and incubated at 37° C. overnight in a 96-well plate to a concentration of 20,000 cells per well using Minimum Essential Medium (MEM) as media. The following day (or once cells were confluent) the media was removed and cells were incubated at 37° C. overnight with MEM supplemented with desired concentration of PMP-Glc and NOGlc (100 μL of solution added). The following day the plates were centrifuged (700 RPM for 3 minutes) and the solutions were removed. 200 μL of MEM was added to each well, followed by 50 μL of 2.5 mg/mL MTT solution in Hank's Balanced Salt Solution (HBSS) to a final concentration of 0.5 mg/mL MTT per well. Then the plates were incubated for 3 hours at 37° C. After incubation, the plates were centrifuged (700 RPM for 3 minutes) and 200 μL of a 10% TritonX/0.1 N HCl in isopropanol solution was added to each well. The plates were incubated in the dark for 1 hour, then shaken and the absorbance at […] of each well was read. % viability at 37° C. of PMP-Glc at a concentration 11 mM, 22 mM, 44 mM, 110 mM and 220 mM PMP-Glc was measured, and the results are shown in FIG. 12. % viability at 37° C. of NOGlc at a concentration of 0.1 mM, 0.2 mM, 0.5 mM, 1 mM, 2 mM and 5 mM was measured. Also, % viability at 37° C. of PMP-Glc, pFPh-Glc and pBrPh-Glc at a concentration of 11 mM, 22 mM, 44 mM, 55 mM, 110 mM and 220 mM was measured under the same conditions for the MTT Assay described above.\nHuman liver cell viability in compound (3a), (4a), […], and (1b) was assessed using a 3-(4,5-dimethylthiazol-2-yl)-2,5-diphenyltetrazolium bromide (MTT) Assay. In the assay, HepG2 cells (human hepatocellular carcinoma cells) were harvested and incubated overnight at 37° C. in a 96-well plate to a concentration of 20,000 cells per well using Minimum Essential Medium (MEM) as media. The following day, the media was removed and cells were incubated at 37° C. overnight with 100 μL MEM supplemented with different concentrations of (3a), (2a), (4a), and (1b). The following day, the plates were centrifuged at 1000 rpm for 5 minutes and solutions removed by aspiration. 200 μL of MEM was added to each well, followed by 50 μL of 2.5 mg/mL MTT (dissolved in HBSS). The plates were then incubated at 37° C. for 4 hours. After incubation, the plates were centrifuged at 1000 rpm for 5 minutes and solution was aspirated. […] The plates were incubated at ambient temperature for 3 hours before being shaken and the absorbance at 570 nm of each well was read. % viability at 37° C. of (3a) at 11 mM, 22 mM, 44 mM, 55 mM and 110 mM was measured and the results are shown in FIG. 37. […] Nonetheless, the cytotoxicity of DMSO itself was not determined."}
{"smiles": "O=C(NCc1c(F)cccc1F)[C@H](O)[C@@H](O)[C@H](O)[C@H](O)CO", "note": "[(1b), N-(2,6-difluorobenzyl)-D-gluconamide]", "cytotoxicity": "minimally cytotoxic relative to DMSO alone"}
{"smiles": "O=C(Nc1ccc(Cl)cc1)[C@H](O)[C@@H](O)[C@H](O)[C@H](O)CO", "note": "[(4a), N-(4-chlorophenyl)-D-gluconamide]", "cytotoxicity": "minimally cytotoxic relative to DMSO alone"}
{"smiles": "COc1ccc(NC(=O)[C@H](O)[C@@H](O)[C@H](O)[C@H](O)CO)cc1", "note": "[(3a), N-(4-methoxyphenyl)-D-gluconamide]", "cytotoxicity": "minimally cytotoxic relative to DMSO alone"}
{"smiles": "O=C(Nc1ccccc1F)[C@H](O)[C@@H](O)[C@H](O)[C@H](O)CO", "note": "[(2a), N-(2-fluorophenyl)-D-gluconamide]", "cytotoxicity": "minimally cytotoxic relative to DMSO alone"}
